This is an account of results in patent US11833160B2, “Ursodeoxycholic acid derivatives as HDAC inhibitors for the treatment of polycystic diseases” (UNIVERSIDAD DEL PAIS VASCO/EUSKAL HERRIKO UNIBERTSITATEA, priority 2017, dated 2023).

The target of one test is T1, human HDAC8 (Homo sapiens, UniProt Q9BY41).
T1 construct: purchased BioMol SE-145; host or cells: E. coli
T1 sequence (Q9BY41 1-377): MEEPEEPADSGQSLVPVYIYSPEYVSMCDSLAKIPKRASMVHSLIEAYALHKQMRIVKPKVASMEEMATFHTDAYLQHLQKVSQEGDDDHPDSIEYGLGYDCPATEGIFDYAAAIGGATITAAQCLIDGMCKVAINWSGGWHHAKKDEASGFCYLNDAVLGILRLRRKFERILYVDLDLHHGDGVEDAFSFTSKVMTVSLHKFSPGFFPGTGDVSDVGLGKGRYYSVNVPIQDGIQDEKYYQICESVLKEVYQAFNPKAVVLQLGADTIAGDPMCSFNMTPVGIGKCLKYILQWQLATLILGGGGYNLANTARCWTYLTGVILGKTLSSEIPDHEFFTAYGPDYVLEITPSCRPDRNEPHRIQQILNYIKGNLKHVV
The test is described as follows: HDAC8 enzymatic activity assay (fluorogenic peptide). Type of test: biochemical. The following applies: 10-dose, 3-fold serial dilution, triplicate. As to the method:
(§1) Peptide substrates: all HDAC assays were performed using acetylated peptide substrates labeled with 7-amino-4-methylcoumarin (AMC): • Substrate for isoforms HDAC1, 2, 3, 6, 10, 11, and HeLa nuclear extract assays: acetylated fluorogenic peptide from p53 residues 379-382 (RHKKAc). • Substrate for isoforms HDAC4, 5, 7, 9: fluorogenic Boc-L-Lys (s-trifluoroacetyl)-AMC. • Substrate for HDAC8 assays: acetylated fluorogenic peptide from p53 residues 379-382 (RHKAcKAc).
(§2) 50 μl of peptide substrate (see “peptide substrates” section above) and an optimal concentration of the corresponding enzyme (see “enzymes” section above) in the assay buffer at a final DMSO concentration of 1% were incubated in the presence of gradient concentrations of inhibitors (10-dose IC50 mode with 3-fold serial dilution) at 30° C. for 2 hours. The reactions were carried out in a 96-well microplate for fluorometry in a 50 μl reaction volume. After the deacetylation reaction, Fluor-de-Lys-Developer (BioMol Cat. #KI-105) was added to each well to digest the deacetylated substrate, thereby producing the fluorescent signal. The reaction was carried out for 45 minutes at 30° C. with 5% CO2; the fluorescent signal was then measured using an excitation wavelength of 360 nm and an emission wavelength of 460 nm in a microplate-reading fluorometer (GeminiXS, Molecular Devices, Sunnyvale, CA). A curve of deacetylated standard (Biomol, Cat. #KI-142; made from 100 μM with 1:2 dilution and 10 doses, 6 μl) allowed the conversion of the fluorescent signal into micromoles of deacetylated product. All experiments were performed in triplicate. The IC50s were calculated by fitting the experimental data to dose-response curve. DMSO was used as negative control; Trichostatin A (Biomol Cat. #GR-309) was used as positive control inhibitor.
(§3) Enzymatic activity assays were carried out in 11 HDAC enzymes, including HDAC6.

Test [1] relates to polycystic human cholangiocytes. The test is described as follows: Intracellular Ca^2+ measurement (Fluo-4 AM). The format is cell-based. From the text: As described previously [Banales J M et al. Hepatology 2009; Perugorria M J et al. Nature Reviews G&H; Munoz-Garrido P et al. Journal of Hepatology 2015], polycystic (human and rat) cholangiocytes are characterized by a decrease in intracellular Ca^2+ levels, which promotes their proliferation. Furthermore, it has been proven that chronic treatment with UDCA is capable of partially inhibiting the proliferation of polycystic human cholangiocytes through the normalization of intracellular Ca^2+ levels in experimental models [Munoz-Garrido P et al. Journal of Hepatology 2015] and patients [D'Agnolo H M A, et al. Journal of Hepatology 2016] with PLD. […] To that end, the “Fluo-4 AM” (Thermo Fisher Scientific) intracellular Ca^2+ measurement method was used. A Ca^2+ ionophore (i.e., A23187, Sigma) was used as positive control.

A further test concerns the target T2, human HDAC6 (Homo sapiens, UniProt Q9UBN7).
T2 construct: GST (N); purchased BioMol SE-508; host or cells: baculovirus / Sf9 cells
T2 sequence (Q9UBN7 1-1215): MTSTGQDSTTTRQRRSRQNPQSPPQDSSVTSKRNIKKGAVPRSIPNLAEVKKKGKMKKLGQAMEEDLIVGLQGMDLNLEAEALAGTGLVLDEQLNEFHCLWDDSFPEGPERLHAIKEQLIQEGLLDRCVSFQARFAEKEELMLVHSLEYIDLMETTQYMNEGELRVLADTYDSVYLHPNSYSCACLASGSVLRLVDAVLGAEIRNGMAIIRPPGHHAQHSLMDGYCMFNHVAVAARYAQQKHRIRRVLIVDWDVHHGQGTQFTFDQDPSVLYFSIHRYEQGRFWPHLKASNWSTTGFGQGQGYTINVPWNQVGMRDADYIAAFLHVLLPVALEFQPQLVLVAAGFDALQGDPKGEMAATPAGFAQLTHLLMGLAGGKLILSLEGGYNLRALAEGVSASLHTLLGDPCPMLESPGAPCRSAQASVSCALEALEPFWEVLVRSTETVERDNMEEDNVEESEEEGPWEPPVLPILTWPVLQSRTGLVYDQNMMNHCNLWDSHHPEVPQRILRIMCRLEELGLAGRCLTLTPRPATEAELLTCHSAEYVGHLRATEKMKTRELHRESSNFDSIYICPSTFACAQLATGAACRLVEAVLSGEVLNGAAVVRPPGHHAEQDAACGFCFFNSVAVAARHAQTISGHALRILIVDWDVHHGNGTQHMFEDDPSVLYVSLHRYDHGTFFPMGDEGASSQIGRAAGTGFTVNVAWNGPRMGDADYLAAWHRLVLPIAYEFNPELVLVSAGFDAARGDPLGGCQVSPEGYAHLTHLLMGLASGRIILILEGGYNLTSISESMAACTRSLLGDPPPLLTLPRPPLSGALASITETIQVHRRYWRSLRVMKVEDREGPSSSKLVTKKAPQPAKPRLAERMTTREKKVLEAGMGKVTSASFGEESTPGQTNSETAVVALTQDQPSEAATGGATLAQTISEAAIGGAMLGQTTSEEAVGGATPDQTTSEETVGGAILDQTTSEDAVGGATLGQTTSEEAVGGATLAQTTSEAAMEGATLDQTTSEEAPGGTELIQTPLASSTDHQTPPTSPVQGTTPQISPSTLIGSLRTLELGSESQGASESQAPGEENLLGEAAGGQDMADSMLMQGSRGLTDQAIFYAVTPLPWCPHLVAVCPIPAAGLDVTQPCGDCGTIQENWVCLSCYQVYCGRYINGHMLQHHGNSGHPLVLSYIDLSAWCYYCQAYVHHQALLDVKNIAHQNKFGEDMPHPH
The test is described as follows: HDAC6 enzymatic activity assay (fluorogenic peptide). Type of test: biochemical. The following applies: for IC50: 10-dose, 3-fold serial dilution, triplicate. On the procedure: as §1, §2, §3

One may read the IC50 as the point on the concentration scale where inhibition reaches its midpoint. At human HDAC8, `C[C@H](CCC(=O)NCc1ccc(C(=O)NO)cc1)[C@H]1CC[C@H]2[C@@H]3[C@@H](O)C[C@@H]4C[C@H](O)CC[C@]4(C)[C@H]3CC[C@]12C` [Compound Ia] had an IC50 of 0.894 µM. For the same compound, the “intracellular Ca^2+ levels” value in test [1] was “increasing intracellular Ca^2+ levels”. Besides, on human HDAC6, the “selectivity and inhibitory capacity with respect to HDAC6 enzyme” value is listed as “nanomolar range”; half-maximal inhibition (IC50) was put at 0.058 µM. The HDAC6 selectivity proportion on human HDAC6 (matches IC50 HDAC1 / IC50 HDAC6) worked out at 174.

`C[C@H](CCC(=O)NCC(=O)NCc1ccc(C(=O)NO)cc1)[C@H]1CC[C@H]2[C@@H]3[C@@H](O)C[C@@H]4C[C@H](O)CC[C@]4(C)[C@H]3CC[C@]12C` [Ib, 4-((2-((R)-4 ((3R,5S,7S,8R,9S,10S,13R,14S,17R)-3,7-dihydroxy-10,13-dimethylhexadecahydro-1H-cyclopenta[a]phenanthren-17-yl)pentanamide)acetamido)methyl)-N-hydroxybenzamide] displayed an IC50 on human HDAC8 of 0.615 µM. For the same compound, in test [1], the “intracellular Ca^2+ levels” value is on record as “increasing intracellular Ca^2+ levels”. Further, at human HDAC6, the “selectivity and inhibitory capacity with respect to HDAC6 enzyme” value is given as “nanomolar range”; 0.0561 µM corresponded to half-maximal inhibition (IC50).
